Reference: US7678794B2, “Potentiators of glutamate receptors” (Eli Lilly and Company, priority 2004, dated 2010)

Each compound was assayed against T1, human CysLT1 receptor (Homo sapiens, UniProt Q9Y271) (assay: Antagonism of LTD4-induced increase in intracellular calcium within a CysLT1 receptor expressing cell line (FLIPR)). Details: AV12-664 cells expressing human CysLT1; 6 nM LTD4; read-out: antagonism of CysLT1 receptors, IC50.
T1 construct: expressed in transfected cells; host or cells: AV12-664 (ATCC-9595)
T1 sequence (Q9Y271 1-337): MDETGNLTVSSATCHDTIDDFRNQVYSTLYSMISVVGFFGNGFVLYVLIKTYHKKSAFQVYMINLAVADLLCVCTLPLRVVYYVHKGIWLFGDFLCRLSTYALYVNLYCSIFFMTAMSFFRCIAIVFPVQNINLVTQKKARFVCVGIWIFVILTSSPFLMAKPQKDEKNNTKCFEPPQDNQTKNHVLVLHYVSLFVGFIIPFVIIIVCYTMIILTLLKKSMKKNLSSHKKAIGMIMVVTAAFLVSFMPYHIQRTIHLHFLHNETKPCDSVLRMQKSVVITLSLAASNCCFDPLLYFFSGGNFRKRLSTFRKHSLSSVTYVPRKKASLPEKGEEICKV
Assay type: cell-based
Description: Antagonism of Cysteinyl-leukotriene D4 (LTD4)—Induced Increase in Intracellular Calcium within a Cysteinyl-Leukotriene 1 (CysLT1) Receptor Expressing Cell Line
Confluent cultures are passaged weekly. Intracellular calcium levels are monitored in the CysLT1-expressing cells with the addition of LTD4, with or without prior exposure to the compounds being tested as antagonists with a Fluorometric Imaging Plate Reader (FLIPR, Molecular Devices). The following buffer is used throughout as an assay buffer: Hanks Buffered Saline Solution without phenol red (GIBCO), with 10 mM HEPES pH 7.4. Cells that had been plated 48 hours prior at a density of 20-25,000 cells per well in a 96-well plate are loaded with a calcium-sensitive dye for 90 minutes at 25° C. Fluo-3 (2 mM in DMSO, Molecular Probes) is mixed with an equal volume of 10% pluronic acid in DMSO, and diluted to 8 μM in the buffer described above containing 10% fetal bovine serum to make the loading buffer. Following loading of the cells, the buffer is removed and replaced with assay buffer prior to drug addition and monitoring on the FLIPR for several minutes. […] Least squares curve fitting with a four-parameter equation is applied to the resulting dose-% inhibition curve to determine the resulting IC50 values.

Row | IC50 [nM] | SMILES
1 | < 500 | CCCc1c(OCc2ccc(NC(=O)Nc3cccc(C(=O)O)c3)cc2)ccc(C(C)=O)c1O [Example 1, 3-{3-[4-(4-acetyl-3-hydroxy-2-propyl-phenoxymethyl)-phenyl]-ureido}-benzoic acid]
2 | < 500 | CCCc1c(OCc2ccc(S(=O)(=O)Nc3ccccc3-c3nn[nH]n3)cc2)ccc(C(C)=O)c1O [Example 10, 4-(4-Acetyl-3-hydroxy-2-propyl-phenoxymethyl)-N-[2-(2 H-tetrazol-5-yl)-phenyl]-benzene-sulfonamide]
3 | < 500 | CCCc1c(OCc2cccc(S(=O)(=O)Nc3cccc(-c4nn[nH]n4)c3)c2)ccc(C(C)=O)c1O [Example 12, 3-(4-Acetyl-3-hydroxy-2-propyl-phenoxymethyl)-N-[3-(2 H-tetrazol-5-yl)-phenyl]-benzene-sulfonamide]
4 | < 500 | CCCc1c(OCc2cccc(S(=O)(=O)Nc3ccccc3-c3nn[nH]n3)c2)ccc(C(C)=O)c1O [Example 13, 3-(4-Acetyl-3-hydroxy-2-propyl-phenoxymethyl)-N-[2-(2 H-tetrazol-5-yl)-phenyl]-benzene-sulfonamide]
